In ChEMBL document CHEMBL1944614, “A scaffold hopping approach to identify novel monoamine oxidase B inhibitors” (Bioorg Med Chem Lett, 2012):
pIC50: −log10 of the molar value.

Columns and labels:
[1] = molecular target: T1, Amine oxidase [flavin-containing] A (Homo sapiens, UniProt P21397); experiment: Inhibition of human recombinant MAOA using kynuramine as substrate by fluorimetry
T1 sequence (P21397 whole entry): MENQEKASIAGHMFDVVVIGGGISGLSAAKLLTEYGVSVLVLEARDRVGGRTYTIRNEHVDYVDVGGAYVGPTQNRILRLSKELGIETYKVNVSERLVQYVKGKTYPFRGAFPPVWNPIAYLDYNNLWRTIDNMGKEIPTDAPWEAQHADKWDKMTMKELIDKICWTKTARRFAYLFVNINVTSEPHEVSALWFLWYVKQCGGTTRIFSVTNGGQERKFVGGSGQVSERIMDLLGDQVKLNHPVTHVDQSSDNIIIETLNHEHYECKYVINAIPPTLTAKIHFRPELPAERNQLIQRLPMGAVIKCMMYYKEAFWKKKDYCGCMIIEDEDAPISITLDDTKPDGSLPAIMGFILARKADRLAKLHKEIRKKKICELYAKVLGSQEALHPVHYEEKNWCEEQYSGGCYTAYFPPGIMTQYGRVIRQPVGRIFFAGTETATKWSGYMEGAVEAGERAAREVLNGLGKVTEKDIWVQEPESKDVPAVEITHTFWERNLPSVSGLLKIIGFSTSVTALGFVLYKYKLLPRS

[2] = molecular target: T2, Amine oxidase [flavin-containing] B (Homo sapiens, UniProt P27338); experiment: Inhibition of human recombinant MAOB using kynuramine as substrate by fluorimetry
T2 sequence (P27338 whole entry): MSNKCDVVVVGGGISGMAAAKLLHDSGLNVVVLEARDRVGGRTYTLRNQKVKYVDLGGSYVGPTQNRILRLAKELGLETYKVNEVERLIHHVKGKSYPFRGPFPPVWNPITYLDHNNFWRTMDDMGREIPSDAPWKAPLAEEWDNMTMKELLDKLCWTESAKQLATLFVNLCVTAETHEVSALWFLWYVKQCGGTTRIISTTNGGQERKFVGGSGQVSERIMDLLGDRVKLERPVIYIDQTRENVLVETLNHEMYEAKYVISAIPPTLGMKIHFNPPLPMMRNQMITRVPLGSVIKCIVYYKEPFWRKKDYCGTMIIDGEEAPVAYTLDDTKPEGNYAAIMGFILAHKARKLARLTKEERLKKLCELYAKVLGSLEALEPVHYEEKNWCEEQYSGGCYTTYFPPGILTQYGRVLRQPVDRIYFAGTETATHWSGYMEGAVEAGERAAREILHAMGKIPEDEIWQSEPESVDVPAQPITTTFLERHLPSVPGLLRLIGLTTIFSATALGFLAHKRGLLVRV

[3] = molecular target: T2, Amine oxidase [flavin-containing] B; experiment: Competitive inhibition of human recombinant MAOB by Lineweaver-Burk plot analysis

O=C1/C(=C/c2ccccc2O)Oc2cc(O)ccc21
pIC50 [1]: 4.75
pIC50 [2]: 4.94

COc1ccc(NC(=O)N2CCc3ccccc32)cc1
pIC50 [1]: < 4.00
pIC50 [2]: 5.58

O=C1NC(=O)/C(=C\c2ccc(Br)cc2)S1
inhibition (INH) [3]: Active
pIC50 [1]: 4.36
pIC50 [2]: 6.64

CCOC1CC(c2ccccc2)=NN1c1ccc([N+](=O)[O-])cc1 (stereo not drawn)
pIC50 [1]: 5.27
pIC50 [2]: 6.04

CN(C)c1ccc(/C=C2\Oc3ccccc3C2=O)cc1
pIC50 [1]: 6.57
pIC50 [2]: 7.00

Cc1ccc2c(c1)O/C(=C\c1ccccc1)C2=O
pIC50 [1]: 4.40
pIC50 [2]: 5.47

CN(C)c1ccc(/C=C2\Oc3cc(O)ccc3C2=O)cc1
pIC50 [1]: 6.01

Cc1[nH]n(-c2ccccc2)c(=O)c1/C=N/NC(=O)c1cccnc1
pIC50 [1]: < 4.00
pIC50 [2]: 4.88

O=C1/C(=C/c2ccc(Cl)cc2)Oc2ccccc21
pIC50 [1]: 6.15
pIC50 [2]: 6.52
